Test results from PMC6979384, “Characterization of the plant homeodomain (PHD) reader family for their histone tail interactions” (Epigenetics & Chromatin, 2020).

Legend:
Experiment in all cases: Histone peptide microarray
Type in all cases: binding, human
[1] = system: AIRE (PP); settings: GST-tagged AIRE (PP); histone peptide array; arrays performed twice, n of 4
Procedure, shortened: (§1)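 A peptide microarray holding 293 synthetic histone peptides with individual or combinatorial modifications was probed with each GST-PHD protein at 0.5 μM. Values represent mean intensity (±SD) from four replicates.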

[2] = system: BAZ2B; settings: GST-tagged BAZ2B; histone peptide array; arrays performed twice, n of 4
Procedure, shortened: as §1

[3] = system: BPTF (PB); settings: GST-tagged BPTF (PB = PHD + Bromodomain); histone peptide array; arrays performed twice, n of 4
Procedure, shortened: as §1

[4] = system: CHD4 (PPCC); settings: GST-tagged CHD4 (PPCC = Dual PHD + Dual Chromodomain); histone peptide array; arrays performed twice, n of 4
Procedure, shortened: as §1

[5] = system: CHD5 (PCC); settings: GST-tagged CHD5 (PCC = PHD + Dual Chromodomain); histone peptide array; arrays performed twice, n of 4
Procedure, shortened: as §1

[6] = system: CHD5 (PPCC); settings: GST-tagged CHD5 (PPCC = Dual PHD + Dual Chromodomain); histone peptide array; arrays performed twice, n of 4
Procedure, shortened: as §1

[7] = system: DIDO1; settings: GST-tagged DIDO1; histone peptide array; arrays performed twice, n of 4
Procedure, shortened: as §1

[8] = system: DPF2 (PPC2W2); settings: GST-tagged DPF2 (PPC2W2 = Dual PHD + C2W2-type Zn-finger); histone peptide array; arrays performed twice, n of 4
Procedure, shortened: as §1

[9] = system: ING1; settings: GST-tagged ING1; histone peptide array; arrays performed twice, n of 4
Procedure, shortened: as §1

[10] = system: ING2; settings: GST-tagged ING2; histone peptide array; arrays performed twice, n of 4
Procedure, shortened: as §1

[11] = system: ING3; settings: GST-tagged ING3; histone peptide array; arrays performed twice, n of 4
Procedure, shortened: as §1

[12] = system: ING4; settings: GST-tagged ING4; histone peptide array; arrays performed twice, n of 4
Procedure, shortened: as §1

[13] = system: ING5; settings: GST-tagged ING5; histone peptide array; arrays performed twice, n of 4
Procedure, shortened: as §1

[14] = system: KDM4C (TTP); settings: GST-tagged KDM4C (TTP = Tandem Tudor domain + PHD); histone peptide array; arrays performed twice, n of 4
Procedure, shortened: as §1

[15] = system: KDM5A (1); settings: GST-tagged KDM5A (1); histone peptide array; arrays performed twice, n of 4
Procedure, shortened: as §1

[16] = system: KDM5A (3); settings: GST-tagged KDM5A (3); histone peptide array; arrays performed twice, n of 4
Procedure, shortened: as §1

[17] = system: KDM5B (1); settings: GST-tagged KDM5B (1); histone peptide array; arrays performed twice, n of 4
Procedure, shortened: as §1

[18] = system: KDM5B (3); settings: GST-tagged KDM5B (3); histone peptide array; arrays performed twice, n of 4
Procedure, shortened: as §1

[19] = system: KDM7A; settings: GST-tagged KDM7A; histone peptide array; arrays performed twice, n of 4
Procedure, shortened: as §1

[20] = system: MLL5; settings: GST-tagged MLL5; histone peptide array; arrays performed twice, n of 4
Procedure, shortened: as §1

[21] = system: MORC3 (CW); settings: GST-tagged MORC3 (CW = CW-type Zn-finger); histone peptide array; arrays performed twice, n of 4
Procedure, shortened: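 Steps: express and purify GST-tagged PHD reader; incubate 0.5 μM protein on a peptide microarray (293 histone peptides, single or combined PTMs) following an optimized protocol; average signal across 4 replicates.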

[22] = system: PHF13; settings: GST-tagged PHF13; histone peptide array; arrays performed twice, n of 4
Procedure, shortened: as §1

[23] = system: PHF21A; settings: GST-tagged PHF21A; histone peptide array; arrays performed twice, n of 4
Procedure, shortened: as §1

[24] = system: PHF23; settings: GST-tagged PHF23; histone peptide array; arrays performed twice, n of 4
Procedure, shortened: as §1

[25] = system: PHF2; settings: GST-tagged PHF2; histone peptide array; arrays performed twice, n of 4
Procedure, shortened: as §1

[26] = system: PHF8; settings: GST-tagged PHF8; histone peptide array; arrays performed twice, n of 4
Procedure, shortened: as §1

[27] = system: PHRF1 (RP); settings: GST-tagged PHRF1 (RP); histone peptide array; arrays performed twice, n of 4
Procedure, shortened: as §1

[28] = system: RAG2; settings: GST-tagged RAG2; histone peptide array; arrays performed twice, n of 4
Procedure, shortened: as §1

[29] = system: SP140L; settings: GST-tagged SP140L; histone peptide array; arrays performed twice, n of 4
Procedure, shortened: as §1

[30] = system: TAF3; settings: GST-tagged TAF3; histone peptide array; arrays performed twice, n of 4
Procedure, shortened: as §1

[31] = system: TRIM66 (PB); settings: GST-tagged TRIM66 (PB = PHD + Bromodomain); histone peptide array; arrays performed twice, n of 4
Procedure, shortened: as §1

Substance | Array Heatmap signal, AIRE (PP) [1] | Array Heatmap signal, BAZ2B [2] | Array Heatmap signal, BPTF (PB) [3] | Array Heatmap signal, CHD4 (PPCC) [4] | Array Heatmap signal, CHD5 (PCC) [5] | Array Heatmap signal, CHD5 (PPCC) [6] | Array Heatmap signal, DIDO1 [7] | Array Heatmap signal, DPF2 (PPC2W2) [8] | Array Heatmap signal, ING1 [9] | Array Heatmap signal, ING2 [10] | Array Heatmap signal, ING3 [11] | Array Heatmap signal, ING4 [12] | Array Heatmap signal, ING5 [13] | Array Heatmap signal, KDM4C (TTP) [14] | Array Heatmap signal, KDM5A (1) [15] | Array Heatmap signal, KDM5A (3) [16] | Array Heatmap signal, KDM5B (1) [17] | Array Heatmap signal, KDM5B (3) [18] | Array Heatmap signal, KDM7A [19] | Array Heatmap signal, MLL5 [20] | also measured
H4S1p + R3me2a: H4 1-23 | 0.6422 | 0.5882 | 0.4592 | 0.6213 | 0.908 | 0.617 | 0.8161 | 0.7324 | 0.5568 | 0.6378 | 0.5499 | 0.5743 | 0.4163 | 0.5709 | 0.5298 | 0.5495 | 0.7314 | 0.6926 | 0.485 | 0.6348 | Array Heatmap signal, MORC3 (CW) [21]: 0.5537; Array Heatmap signal, PHF13 [22]: 0.7049; Array Heatmap signal, PHF21A [23]: 0.4964; Array Heatmap signal, PHF23 [24]: 0.6265; Array Heatmap signal, PHF2 [25]: 0.5511; Array Heatmap signal, PHF8 [26]: 0.44; Array Heatmap signal, PHRF1 (RP) [27]: 0.5062; Array Heatmap signal, RAG2 [28]: 0.4591; Array Heatmap signal, SP140L [29]: 0.4294; Array Heatmap signal, TAF3 [30]: 0.5622; Array Heatmap signal, TRIM66 (PB) [31]: 0.7721
H4S1p + R3me2s: H4 1-23 | 0.5797 | 0.546 | 0.4125 | 0.6243 | 0.9435 | 0.6121 | 0.7409 | 0.7264 | 0.5472 | 0.6427 | 0.5221 | 0.5288 | 0.4164 | 0.5709 | 0.508 | 0.5274 | 0.7342 | 0.6247 | 0.5358 | 0.6789 | Array Heatmap signal, MORC3 (CW) [21]: 0.5092; Array Heatmap signal, PHF13 [22]: 0.6986; Array Heatmap signal, PHF21A [23]: 0.5145; Array Heatmap signal, PHF23 [24]: 0.5739; Array Heatmap signal, PHF2 [25]: 0.514; Array Heatmap signal, PHF8 [26]: 0.4081; Array Heatmap signal, PHRF1 (RP) [27]: 0.4781; Array Heatmap signal, RAG2 [28]: 0.4186; Array Heatmap signal, SP140L [29]: 0.3935; Array Heatmap signal, TAF3 [30]: 0.439; Array Heatmap signal, TRIM66 (PB) [31]: 0.8775
